Experimental data published in patent USRE30241E, “Esters of 3-(hydroxy or hydroxymethyl)-4-hydroxyphenyl aminomethyl ketones” (Sterling Drug Inc., priority 1970, dated 1980).
Like-named read-outs stand apart in the source and are kept apart here.

Legend:
[1] = Stability of test solutions; conditions: ethylenediaminetetraacetic acid added; distilled water or saline solutions
[2] = system: carbachol- or histamine-induced bronchoconstriction; assay: Bronchodilator Test Method I, anesthetized dog, intravenous activity; type: in vivo; conditions: Canis lupus familiaris; for inhibition in vivo at 0.002 mg/kg: 2 mcg/kg i.v.
Outline: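 Pentobarbital-anesthetized (30 mg/kg i.v.), open-chest, artificially ventilated dogs were given i.v. carbachol (4-6 µg/kg) or histamine diphosphate (35-45 µg/kg). Test compound was given i.v. mixed with, after, or 1-10 min before the constrictor.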

[3] = system: heart rate; assay: Cardiovascular studies: effect on the heart rate in the anesthetized dog; type: in vivo
Outline: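 Anesthetized dogs, mostly spontaneously breathing, some open-chest, given rapid intravenous injections. Heart rate by electrocardiograph with blood pressure recorded simultaneously, every 0.5-1 minute for 10 minutes then every 2-5 minutes until recovery; several doses or compounds sometimes tested alternately in one dog.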

[4] = system: guinea pig bronchioles constricted by carbachol; assay: Bronchodilator Test Method II, in vitro perfused guinea pig lung
Description: In this method bronchodilator activity in vitro was determined by testing the effect of graded doses of the test compounds on guinea pig bronchioles constricted by carbachol, using the technique reported by Sollman and von Oettingen, Proc. Soc, Exp. Biol. Med., 25,692 (1928) as modified by Tainter, Pedden, and James, J. Pharm. Exp. Ther., 51, 371 (1934) and by Luduena, von Euler, Tullar, and Lands, Arch. intern. Pharmacol., III, 392 (1957).

[5] = system: diastolic blood pressure; assay: Effect on diastolic blood pressure in the anesthetized dog; type: in vivo
Description: The effect of a rapid intravenous injection on the heart rate the heart rate was conducted in anesthetized dogs under normal respiration. A few open-chest dogs were also tested. Increase in heart rate was measured by using an electrocardiograph attached to the dog. Readings were taken every 0.5-1 minute for the first 10 minutes and every 2-5 minutes thereafter until recovery. In some cases, several doses and more than one compound were tested alternately in the same dog. The blood pressure effect was simultaneously recorded.

[6] = system: carbachol- or histamine-induced bronchoconstriction; assay: Bronchodilator Test Method I, anesthetized dog, intraduodenal activity; type: in vivo; conditions: Canis lupus familiaris, read-out: Bronchodilation; for inhibition in vivo at 0.035 mg/kg: 35 mcg/kg (salt) intraduodenal; for inhibition in vivo at 0.07 mg/kg: 70 mcg/kg (salt) intraduodenal; for inhibition in vivo at 0.28 mg/kg: 280 mcg/kg (salt) intraduodenal; for inhibition in vivo at 0.03 mg/kg: 30 mcg/kg (salt) intraduodenal; for inhibition in vivo at 0.12 mg/kg: 120 mcg/kg (salt) intraduodenal
Outline: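 Pentobarbital-anesthetized (30 mg/kg i.v.) open-chest dogs of 9-18 kg, artificially ventilated; airway pressure recorded via tracheal cannula transducer. Test solution injected intraduodenally; from 5 min, i.v. carbachol (4-6 μg/kg) or histamine diphosphate (35-45 μg/kg) challenges every 30-60 min gauged degree and duration of bronchodilation.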

CCC(NC(C)C)C(O)c1ccc(O)c(O)c1 (stereo not drawn) [IV, 3,4-Dihydroxy-alpha-[1-(isopropylamino)-propyl]benzyl alcohol, reference compound]
need for stabilizing agent in solution [1]: required to stabilize them | inhibition in vivo at 0.002 mg/kg ([2]; 5 min, 5 min, read-out: Bronchodilatation): 32% | inhibition in vivo at 0.004 mg/kg ([2]; 5 min, 4 mcg/kg i.v., 5 min, read-out: Bronchodilatation): 72% | inhibition in vivo at 0.008 mg/kg ([2]; 5 min, 8 mcg/kg i.v., 5 min, read-out: Bronchodilatation): 74% | inhibition in vivo at 0.002 mg/kg ([2]; 0.5 h, 30 min, read-out: Bronchodilatation): 0% | inhibition in vivo at 0.004 mg/kg ([2]; 0.5 h, 4 mcg/kg i.v., 30 min, read-out: Bronchodilatation): 31% | inhibition in vivo at 0.008 mg/kg ([2]; 0.5 h, 8 mcg/kg i.v., 30 min, read-out: Bronchodilatation): 13% | inhibition in vivo at 0.004 mg/kg ([2]; 1 h, 4 mcg/kg i.v., 60 min, read-out: Bronchodilatation): 19% | inhibition in vivo at 0.008 mg/kg ([2]; 1 h, 8 mcg/kg i.v., 60 min, read-out: Bronchodilatation): 13%

CC(C)(C)NCC(O)c1ccc(O)c(O)c1 (stereo not drawn) [Ref. Cpd. I, 3,4-Dihydroxy-alpha-(tert-butylaminomethyl)benzyl alcohol, reference compound]
need for stabilizing agent in solution [1]: required to stabilize them | Mean Maximal Increase in the Heart Rate ([3]; 0.17 mcg/kg (salt) i.v.): 20% | Mean Maximal Increase in the Heart Rate ([3]; 0.35 mcg/kg (salt) i.v.): 32% | Mean Maximal Increase in the Heart Rate ([3]; 0.7 mcg/kg (salt) i.v.): 44% | ED50 ([4]; carbachol (Doryl) 1:5 million): 0.18 µg (base) | Duration, Mean ([4]; dose 0.32 mcg (base)): 5 ± 1.4 min | Mean Decrease in Diastolic Blood Pressure ([5]; 0.17 meg/kg (salt) i.v.): 13% | Mean Decrease in Diastolic Blood Pressure ([5]; 0.35 meg/kg (salt) i.v.): 33% | Mean Decrease in Diastolic Blood Pressure ([5]; 0.7 meg/kg (salt) i.v.): 41% | inhibition in vivo at 0.00017 mg/kg ([2]; 1 min, 0.17 mcg/kg i.v., 1-2 min, read-out: Bronchodilatation): 22% | inhibition in vivo at 0.00035 mg/kg ([2]; 1 min, 0.35 mcg/kg i.v., 1-2 min, read-out: Bronchodilatation): 57% | inhibition in vivo at 0.035 mg/kg ([6]; 10 min, 10 min): 34% | inhibition in vivo at 0.07 mg/kg ([6]; 10 min, 10 min): 40% | inhibition in vivo at 0.28 mg/kg ([6]; 10 min, 10 min): 66% | inhibition in vivo at 0.035 mg/kg ([6]; 0.5 h, 30 min): 41% | inhibition in vivo at 0.07 mg/kg ([6]; 0.5 h, 30 min): 60% | inhibition in vivo at 0.28 mg/kg ([6]; 0.5 h, 30 min): 59% | inhibition in vivo at 0.035 mg/kg ([6]; 1 h, 60 min): 44% | inhibition in vivo at 0.07 mg/kg ([6]; 1 h, 60 min): 35% | inhibition in vivo at 0.28 mg/kg ([6]; 1 h, 60 min): 46% | inhibition in vivo at 0.035 mg/kg ([6]; 2 h, 120 min): 27% | inhibition in vivo at 0.07 mg/kg ([6]; 2 h, 120 min): 30% | inhibition in vivo at 0.28 mg/kg ([6]; 2 h, 120 min): 54% | inhibition in vivo at 0.035 mg/kg ([6]; 3 h, 180 min): 3% | inhibition in vivo at 0.28 mg/kg ([6]; 3 h, 180 min): 30% | inhibition in vivo at 0.07 mg/kg ([6]; 4 h, 240 min): 0%

CC(C)NCC(O)c1ccc(O)c(O)c1 (stereo not drawn) [Ref. Cpd. II, 3,4-Dihydroxy-alpha-(isopropylaminomethyl)benzyl alcohol, reference compound]
Mean Maximal Increase in the Heart Rate ([3]; 0.15 mcg/kg (salt) i.v.): 26% | Mean Maximal Increase in the Heart Rate ([3]; 0.3 mcg/kg (salt) i.v.): 35% | Mean Maximal Increase in the Heart Rate ([3]; 0.6 mcg/kg (salt) i.v.): 50% | Duration, Mean ([4]; dose 0.75 mcg (base)): 5 min | Mean Decrease in Diastolic Blood Pressure ([5]; 0.15 meg/kg (salt) i.v.): 12% | Mean Decrease in Diastolic Blood Pressure ([5]; 0.3 meg/kg (salt) i.v.): 32% | Mean Decrease in Diastolic Blood Pressure ([5]; 0.6 meg/kg (salt) i.v.): 40% | inhibition in vivo at 0.0003 mg/kg ([2]; 1 min, 0.3 mcg/kg i.v., 1-2 min, read-out: Bronchodilatation): 23% | inhibition in vivo at 0.0006 mg/kg ([2]; 1 min, 0.6 mcg/kg i.v., 1-2 min, read-out: Bronchodilatation): 35% | inhibition in vivo at 0.0012 mg/kg ([2]; 1 min, 1.2 mcg/kg i.v., 1-2 min, read-out: Bronchodilatation): 55% | inhibition in vivo at 0.03 mg/kg ([6]; 10 min, 10 min): 9% | inhibition in vivo at 0.12 mg/kg ([6]; 10 min, 10 min): 28% | inhibition in vivo at 0.03 mg/kg ([6]; 0.5 h, 30 min): 5% | inhibition in vivo at 0.12 mg/kg ([6]; 0.5 h, 30 min): 5% | inhibition in vivo at 0.03 mg/kg ([6]; 1 h, 60 min): 0% | inhibition in vivo at 0.12 mg/kg ([6]; 1 h, 60 min): 19%

CNCC(O)c1ccc(O)c(O)c1 (stereo not drawn) [V, 3,4-Dihydroxy-alpha-(methylaminomethyl)benzyl alcohol, reference compound]
need for stabilizing agent in solution [1]: required to stabilize them | inhibition in vivo at 0.004 mg/kg ([2]; 1 min, read-out: Bronchodilatation, 4 mcg/kg i.v., 1-2 min): 0% | inhibition in vivo at 0.064 mg/kg ([2]; 1 min, read-out: Bronchodilatation, 64 mcg/kg i.v., 1-2 min): 29% | inhibition in vivo at 0.004 mg/kg ([2]; 10 min, read-out: Bronchodilatation, 4 mcg/kg i.v., 10 min): 0% | inhibition in vivo at 0.008 mg/kg ([2]; 10 min, read-out: Bronchodilatation, 8 mcg/kg i.v., 10 min): 0% | inhibition in vivo at 0.008 mg/kg ([2]; 0.5 h, read-out: Bronchodilatation, 8 mcg/kg i.v., 30 min): 0% | inhibition in vivo at 0.016 mg/kg ([2]; 0.5 h, read-out: Bronchodilatation, 16 mcg/kg i.v., 30 min): 5% | inhibition in vivo at 0.064 mg/kg ([2]; 0.5 h, read-out: Bronchodilatation, 64 mcg/kg i.v., 30 min): 0%
